Source: a melting point compilation (Tetko et al.; mined from patent text by program, amines drawn as free bases though some values may be those of a salt)

Row | Structure (SMILES) | melting point
1 | CC(C)(C)NC(=O)[C@@H]1Cc2ccccc2CN1C(=O)OCc1ccccc1 | 105 to 106 °C
2 | CS(=O)(=O)N1CCCn2c(nc3c(N)nc4cccnc4c32)C1 | > 250 °C
3 | CC(=O)Nc1ccc(OCC(=O)NC2CCN(Cc3ccc(Cl)c(Cl)c3)CC2)cc1 | 177 to 178 °C
4 | O=C(O)Cc1ccc(Br)cc1C(=O)O | 210 to 213 °C
5 | CC(C)N(CCCC(=NNC(N)=S)c1ccccc1)C(=O)c1ccccc1 | 107 to 109 °C
6 | COCCOc1cc2ncnc(NC3=CC(=O)C4(Cc5ccccc5)OC4C3=O)c2cc1OC (stereo not given) | 104 to 108 °C
7 | COCCOC[C@H](CC1(C(=O)N[C@H]2CC[C@@H](C(=O)O)CC2)CCCC1)C(=O)O | 108 °C
8 | CNC(=O)c1cccc(Cl)c1Nc1nc(Nc2ccc3c(c2)CCCC(=O)N3CCOC)ncc1Cl | 136 to 157 °C
9 | CC(C)(C)C1=C(C#N)C(c2cccc(C#N)c2Br)c2c[nH]nc2N1 (stereo not given) | 251 °C
10 | Cc1nc(N2CCCC(Cc3cccc(F)c3)C2=O)sc1C(=O)NCc1ccccc1 (stereo not given) | 170 to 171 °C
11 | CCC(CC)Cn1c(=O)c(=O)[nH]c2cc(Cl)ccc21 | 253 to 255 °C
12 | CCCC[C@H](CO)C(=O)NOCc1ccccc1 | 100 to 102 °C
13 | COc1ccc(C(=O)C=CN(C)C)cc1OC | 124 to 125 °C
14 | COc1cc(CNC(=O)c2nc3ccc(F)c(OCCc4ccc(-c5c(O)noc5C)cc4)c3c(=O)[nH]2)ccc1F | 240 to 242 °C
15 | CC(=O)c1cc2c(s1)CCCc1cc(=O)n(-c3ccc(Cl)cc3)nc1-2 | 164 to 166 °C
16 | COC(=O)C(C)CC(=O)C(Cc1ccccc1)NC(=O)c1ccccc1 (stereo not given) | 97 to 98.5 °C
17 | CCO[C@@H]1c2ccn3c(C)c(C)nc3c2N[C@H](c2ccccc2)[C@H]1O | 143 to 144 °C
18 | O=C(O)C1=Cc2cc(SC(F)(F)F)ccc2SC1C(F)(F)F (stereo not given) | 129 to 132 °C
19 | Nc1ccc(NC(=O)CCCCC2CCSS2)cc1 (stereo not given) | 55 to 60 °C
20 | CC1SC(=O)NN=C1c1ccc2c(c1)C(C)(C)C(=O)N2C(=O)c1ccccc1 (stereo not given) | 200 °C
21 | Cc1cccc(Sc2ccc(C(=O)O)s2)c1 | 73 to 75 °C
22 | Cn1cc(-c2ccnc(N[C@H]3CC[C@H](O)CC3)n2)c2ccccc21 | 194 to 195 °C
23 | CCc1cc(Br)cc2[nH]c(=O)oc(=O)c12 | 208 to 210 °C
24 | CC(Cc1cc(C(=O)c2ccccc2)ccc1OC(=O)C(C)(C)C)C(=O)O (stereo not given) | 119 to 120 °C
25 | Cc1cccc2nc(C(C)Nc3ncnc4c3ncn4COCC[Si](C)(C)C)n(-c3cccc(C(N)=O)c3)c(=O)c12 (stereo not given) | 195 to 197 °C
26 | COc1cc(NC(=O)c2cccc(CCc3cc(Nc4ccccc4)n[nH]3)c2)cc(OC)c1OC | 67 to 69 °C
27 | CC(C)(C)OC(=O)Nc1ccccc1NC(=O)c1ccc(CBr)cc1 | 282 to 283 °C

Row | Structure (SMILES) | melting point
28 | COc1ccccc1-c1ccc2c(c1)S(=O)(=O)NC(C1CCCCC1)N2 (stereo not given) | 219 to 222 °C
29 | CCCCS(=O)(=O)NC(CNC(=O)c1cccc(C(=O)C2CCC3(CCNCC3)CC2)c1)C(=O)O (stereo not given) | 155 to 157 °C
30 | Nc1ccc2ccc(-c3ccc(Cl)cc3)nc2n1 | 130 °C
31 | CNc1ccccc1C(=O)CCl | 65 to 68 °C
32 | Cn1c(=O)n(CCC[C@@H](NS(=O)(=O)c2ccc(-c3ccccc3)cc2)C(=O)NO)c(=O)c2ccccc21 | 202 to 203 °C
33 | CC(=O)Nc1ccc2c(c1)OC(C)(C)C=C2 | 80 to 81 °C
34 | CCOC(=O)C(=O)NCc1ccccc1 | 47 to 50 °C
35 | COc1ccc(C2Nc3ccc(Cl)cc3C(C#CC3CC3)(C(F)(F)F)O2)cc1 (stereo not given) | 130 to 132 °C
36 | CC(=O)Oc1cc(/C=C/c2ccccc2)cc(OC(C)=O)c1OC(C)=O | 119 to 120 °C
37 | COc1ccccc1-c1coc2cc(O)c(Cl)cc2c1=O | 228 to 230 °C
38 | C[C@@H](Oc1cccc(F)c1N)[C@H](NC(=O)OC(C)(C)C)C(=O)O | 158 to 160 °C
39 | CCc1nc2ncnn2c(N)c1CCc1ccccc1 | 210 to 211 °C
40 | COCCn1c2cc(OCCCO)c(OC)cc2c2c3c(c(-c4ccccc4Cl)cc21)C(=O)NC3=O | 251 to 257 °C
41 | CC(=O)Nc1ccc(CN(C)C2CCOCC2)cc1 | 105 to 106 °C
42 | O=[N+]([O-])c1cnn(-c2c(Cl)cc(C(F)(F)F)cc2Cl)c1Br | 96 °C
43 | CCOC(=O)c1ncc(Cl)cc1F | 48 to 50 °C
44 | Cc1cc(O)ccc1COCCn1ccnn1 | 92 to 93 °C
45 | CCOc1ccc(C(=O)Nc2ccccc2)cc1[N+](=O)[O-] | 189 to 190 °C
46 | CC(C)c1cc(C(=O)Nc2ccc(C(=O)O)cc2)oc1C(C)C | 120 to 121 °C
47 | Cc1oc(-c2ccccc2)nc1CCOc1ccc(CN(O)C(N)=O)cc1F | 135 to 136 °C
48 | O=C1Cc2cc3cc(OCCCC(=O)N4CCN(CC5CCCCC5)CC4)ccc3nc2N1 | 212 °C
49 | CC1CCC(=NN)c2ncc(C(=O)NN)c(=O)n21 (stereo not given) | 219 to 220 °C
50 | CCn1cc(C(=O)O)c(=O)c2cc(F)c(N3CCSCC3)c(F)c21 | > 300 °C
51 | Oc1ccc(N2CCN(CCC3C=Cc4ccccc43)CC2)cc1 (stereo not given) | 228 °C
52 | N#Cc1ccc(-c2cc(-c3ccc(C#N)cc3[N+](=O)[O-])no2)cc1 | 264 to 265 °C
53 | COc1cc2[nH]c(C)c(C(=O)C(=O)N3CCC(Oc4ccc(C(F)(F)F)cc4)CC3)c2cc1OC | 211 to 213 °C
54 | O=C1NC(=O)C(Oc2ccc3ccccc3c2)S1 (stereo not given) | 221 to 222 °C

Second part, the molecule after the results:

Row | melting point | Structure (SMILES)
55 | 185 to 188 °C | CCN(CC)C(C)CN1c2cc(Cl)ccc2S[C@H]2[C@@H](O)[C@H](O)[C@@H](CO)O[C@H]21 (stereo not given in full)
56 | 53.5 to 54.5 °C | COC(=O)C1(CCCCCCCCCCCCC2(C(=O)NS(C)(=O)=O)CC2)CC1
57 | 210 °C | CCCCc1nc(CO)c(S(=O)(=O)CC)n1Cc1ccc(-c2ccccc2C(=O)O)cc1
58 | 180 °C | CCN(CC)C(=O)CO/N=C(\C(=O)O)c1csc(N)n1
59 | 287 to 288 °C | CC(=O)N[C@H]1CC[C@H](Nc2nccc(-n3nnc4ccccc43)n2)CC1
60 | 149 to 151 °C | CCCCOc1ccc(-c2nc3n(c2-c2ccc(OCCCC)cc2)CCS3)cc1
61 | 209 to 211 °C | CCS(=O)(=O)Nc1cc(-n2nc3n(c2=O)CCS3)c(F)cc1C#N
62 | 162 to 163 °C | CC(=O)NCC1CN(c2ccc(S(=O)(=O)CCO)c(F)c2)C(=O)O1 (stereo not given)
63 | 98 to 99 °C | COC(=O)C1(CCCN2CCN(c3ccccc3)CC2)Oc2ccccc2CCC1O (stereo not given)
64 | 207 °C | O=C(Nc1cccc2c1C(=O)c1c-2n[nH]c1-c1ccc(N2CCNCC2)cc1)NN1CCC[C@@H]1COCc1ccccc1
65 | 142 to 143 °C | Cc1cc(SCc2ccc(OCc3ccc(C(F)(F)F)cc3)cc2)c(Cl)cc1OCC(=O)O
66 | 75 to 76 °C | O=[N+]([O-])c1ccc(Oc2ccccc2)c(Cl)c1NCc1ccc(Cl)cc1
67 | 100 to 101 °C | CC(C)c1ccc(NC(=O)OC(C)(C)C)c(N)c1
68 | 113 to 115 °C | Cn1c2c(ccc1=O)C(NCCc1ccc3ccccc3c1)CCC2 (stereo not given)
69 | 235 to 236 °C | CS(=O)(=O)NCc1ccc2[nH]cc(C(=O)C(=O)N3CCCC3)c2c1
70 | 73 to 75 °C | CCOC(=O)C(C)C(=O)Nc1cccc(S)c1 (stereo not given)
71 | 209 to 210 °C | O=C(O)c1ccc(OCC2CCCCC2)cc1
72 | 73 to 75 °C | CS(=O)(=O)N(Cc1cccnc1)c1ccc(C#N)cc1
73 | 259 to 261 °C | C=C1Cc2c(n(-c3ccccc3)c3ncccc3c2=O)O1
74 | 272 °C | Cc1cc(-c2cc(C(F)(F)F)n3ncc(C(=O)Nc4nc(C)c(S(=O)(=O)NC(C)(C)CO)s4)c3n2)ccc1C(F)(F)F
75 | 98 to 98.5 °C | Cc1ccc2ccccc2c1Cn1ccnc1
76 | 101 to 105 °C | CCCCCC(O)C=CC1C(O)CC(=O)C1CCCCCCC(=O)Oc1ccc(-c2cc(=S)ss2)cc1 (stereo not given)
77 | > 375 °C | c1ccc2c(c1)c1ccccc1c1[nH]cnc21

Row | melting point | Structure (SMILES)
78 | 131 to 133 °C | CON=CC1=CCCN(C(=O)OCC(N)=O)C1
79 | 119 to 120 °C | CCc1nc2c(-c3ccc(OC(F)(F)F)cc3Cl)ncnc2n1C(C1CC1)C1CC1
80 | > 300 °C | O=C1NC(=O)/C(=C/c2cn(-c3ccccc3)nc2OCc2ccccc2)S1
81 | 139 to 140 °C | CCOC(=O)Cc1ccc(NC(=O)C(CO)NS(=O)(=O)c2ccc(Cl)cc2)cc1 (racemic)
82 | > 250 °C | O=c1[nH]cc(-c2ccncn2)cc1Br
83 | 209 to 212 °C | COc1cccc2c(O)c(C(=O)NCCCCN3CCN(C(c4ccccc4)c4ccccc4)CC3)cnc12
84 | 164 to 166 °C | Cn1ncnc1COc1cc(N)c2cnn(-c3ccccc3)c2n1
85 | 78 to 79 °C | COCNC(=O)ON=C1SCOC1C (stereo not given)
86 | 192 °C | CC(=Cc1ccccc1)C(=O)c1ccc(O)c(CC(=O)O)c1
87 | 169 to 171 °C | O=COC(Cc1ccccc1)C1C(=O)NC1SC(c1ccccc1)(c1ccccc1)c1ccccc1 (stereo not given)
88 | 210 °C | CCC(C(O)c1ccc(Cl)cc1)n1ncn(-c2ccc(N3CCN(C(=O)c4ccccn4)CC3)nc2)c1=O (stereo not given)
89 | 293 to 295 °C | O=C1CC(c2ccccc2OCc2ccccc2)=Nc2ccc(N3CCCC3)cc21
90 | 148 to 151 °C | Cc1ccc(-c2ccccc2NC(=O)NN)cc1
91 | 96.5 to 97.5 °C | CCC(C(=O)OC1CC(=O)NC1=O)c1ccccc1 (stereo not given)
92 | 100 to 101 °C | NC(=O)Cc1cccc(OCCN2CCC(Cc3ccccc3)CC2)c1
93 | 157 °C | FC(F)c1cc(Cl)nc2c1c(I)nn2C1CCCCO1 (stereo not given)
94 | > 320 °C | O=C1NCc2c3c(c4[nH]c5ccccc5c4c21)Cc1ccc(C=Cc2ccccn2)cc1-3
95 | 229 °C | Cc1cc2ncc(Nc3ccc(Cl)c(Cl)c3)nc2cc1C
96 | 171 to 173 °C | CCc1c(CCNC(=O)CCCC(=O)NCCc2ccc(OC)c(OC)c2CC)ccc(OC)c1OC
97 | 65 °C | CC(C)Nc1nc(Cl)nc(Cl)c1[N+](=O)[O-]
98 | 157 to 159 °C | COc1ccc(NC(=O)Oc2cccc3ccoc23)cc1
99 | 122 to 123 °C | CCOc1nn(Cc2ccc(OCc3nc(-c4ccccc4)oc3C)c(OC)c2)cc1CCC(=O)O
100 | 242 to 243 °C | CCC=CCC=CCC=CCCCCCCCC(=O)OCC(COC(=O)CCCCCCCC=CCC=CCC=CCC)OCn1cnc2c(=O)[nH]c(N)nc21 (stereo not given)
